According to US8119564B2, “Herbicidal control using sulfentrazone and metsulfuron” (FMC Corporation, priority 2009, dated 2012):

How the values were obtained:
[1] = tested on: field violet (Viola arvensis); experiment: Post-emergent herbicidal evaluation on turf plots, wild violet control; assay type: in vivo
Method: (§1) Test compositions containing sulfentrazone (Dismiss™ Turf Herbicide), metsulfuron methyl (BLADE™ Selective Herbicide For Turfgrass) and mixtures thereof, were diluted with water to provide the appropriate test rate concentrations.
(§2) The size of each experimental turf plot was 5 feet by 10 feet. The application of each test composition was performed with a pressurized back-pack sprayer, calibrated to spray 30 gallons per acre. Three replications were made for each test rate along with an untreated control plot.
(§3) Test weeds were about 3 inches tall at the time of treatment. Control of ground ivy (Glechoma hederacea) and field violet (Viola arvensis) was evaluated at 6, 14, 28, 40 and 55 days after treatment (DAT) for each test rate. In order t to provide a measure of the effectiveness of a herbicide's performance weed control ratings were based on visual observations of the presence or absence of various weeds or of symptoms (necrosis, wilting, curling of leaves, discoloration etc.) on weeds compared to lack of symptoms. Ratings are based on the 0 to 100 rating system, where 0 equals no control and 100 equals complete control, which generally makes use of direct-percentage figures. In this system the standard basis for comparison is an untreated weedy check. Counts are made of each weed species found in the untreated area of the study. This provides a basis to give a precise representation of both weed infestation and degree of control provided by various chemical treatments. Counts are made on randomly selected areas which are generally 1 square foot to 1 square yard in size. Ratings are made for each weed species found in the untreated treatments. For example, a random area in an untreated plot has 10 yellow nutsedge plants per square foot equaling 0% control. A treated plot has only 1 yellow nutsedge plant found in the randomly selected area equaling 90% control.
(§4) Compositions of the present invention were tested for herbicidal efficacy in the manner of Example 1. Table A below summarizes the test data for ratios of sulfentrazone to metsulfuron methyl that are outside the scope of the present invention. The Colby equation expected values are also in Table A.

[2] = tested on: ground ivy (Glechoma hederacea); experiment: Post-emergent herbicidal evaluation on turf plots, ground ivy control; assay type: in vivo
Method: as §1, §2, §3, §4

[3] = 0.01 lb/ac, 6 DAT, NIS 0.25% V/V
[4] = 0.01 lb/ac, 14 DAT, NIS 0.25% V/V
[5] = 0.01 lb/ac, 28 DAT, NIS 0.25% V/V
[6] = 0.01 lb/ac, 40 DAT, NIS 0.25% V/V
[7] = 0.01 lb/ac, 55 DAT, NIS 0.25% V/V
[8] = 0.02 lb/ac, 6 DAT, NIS 0.25% V/V
[9] = 0.02 lb/ac, 14 DAT, NIS 0.25% V/V
[10] = 0.02 lb/ac, 28 DAT, NIS 0.25% V/V
[11] = 0.02 lb/ac, 40 DAT, NIS 0.25% V/V
[12] = 0.02 lb/ac, 55 DAT, NIS 0.25% V/V
[13] = 0.04 lb/ac, 6 DAT, NIS 0.25% V/V
[14] = 0.04 lb/ac, 14 DAT, NIS 0.25% V/V
[15] = 0.04 lb/ac, 28 DAT, NIS 0.25% V/V
[16] = 0.04 lb/ac, 40 DAT, NIS 0.25% V/V
[17] = 0.04 lb/ac, 55 DAT, NIS 0.25% V/V

COC(=O)c1ccccc1S(=O)(=O)NC(=O)Nc1nc(C)nc(OC)n1 [Metsulfuron Methyl, methyl 2-[[[[(4-methoxy-6-methyl-1,3,5-triazin-2-yl)amino]carbonyl]amino]sulfonyl]benzoate]
% Control of Weeds, Wild Violet Control [1, 3]: 0% | % Control of Weeds, Wild Violet Control [1, 4]: 0% | % Control of Weeds, Wild Violet Control [1, 5]: 58.3% | % Control of Weeds, Wild Violet Control [1, 6]: 63.3% | % Control of Weeds, Wild Violet Control [1, 7]: 66.7% | % Control of Weeds, Wild Violet Control [1, 8]: 0% | % Control of Weeds, Wild Violet Control [1, 9]: 3.3% | % Control of Weeds, Wild Violet Control [1, 10]: 50% | % Control of Weeds, Wild Violet Control [1, 11]: 75% | % Control of Weeds, Wild Violet Control [1, 12]: 86.7% | % Control of Weeds, Wild Violet Control [1, 13]: 0% | % Control of Weeds, Wild Violet Control [1, 14]: 0% | % Control of Weeds, Wild Violet Control [1, 15]: 51.7% | % Control of Weeds, Wild Violet Control [1, 16]: 66.7% | % Control of Weeds, Wild Violet Control [1, 17]: 66.7% | % Control of Weeds, Ground Ivy Control [2, 3]: 5% | % Control of Weeds, Ground Ivy Control [2, 4]: 33% | % Control of Weeds, Ground Ivy Control [2, 5]: 83% | % Control of Weeds, Ground Ivy Control [2, 6]: 96% | % Control of Weeds, Ground Ivy Control [2, 7]: 97% | % Control of Weeds, Ground Ivy Control [2, 8]: 0% | % Control of Weeds, Ground Ivy Control [2, 9]: 20% | % Control of Weeds, Ground Ivy Control [2, 10]: 75% | % Control of Weeds, Ground Ivy Control [2, 11]: 94% | % Control of Weeds, Ground Ivy Control [2, 12]: 100% | % Control of Weeds, Ground Ivy Control [2, 13]: 0% | % Control of Weeds, Ground Ivy Control [2, 14]: 36.7% | % Control of Weeds, Ground Ivy Control [2, 15]: 90% | % Control of Weeds, Ground Ivy Control [2, 16]: 97% | % Control of Weeds, Ground Ivy Control [2, 17]: 100%

Cc1nn(-c2cc(NS(C)(=O)=O)c(Cl)cc2Cl)c(=O)n1C(F)F [Sulfentrazone, N-[2,4-dichloro-5-[4-difluoromethyl-4,5-dihydro-3-methyl-5-oxo-1H-1,2,4-triazol-1-yl]phenyl]methanesulfonamide]
% Control of Weeds, Wild Violet Control ([1]; 0.125 lb/ac, 6 DAT): 5% | % Control of Weeds, Wild Violet Control ([1]; 0.125 lb/ac, 14 DAT): 0% | % Control of Weeds, Wild Violet Control ([1]; 0.125 lb/ac, 28 DAT): 0% | % Control of Weeds, Wild Violet Control ([1]; 0.125 lb/ac, 40 DAT): 0% | % Control of Weeds, Wild Violet Control ([1]; 0.125 lb/ac, 55 DAT): 0% | % Control of Weeds, Wild Violet Control ([1]; 0.25 lb/ac, 6 DAT): 5% | % Control of Weeds, Wild Violet Control ([1]; 0.25 lb/ac, 14 DAT): 0% | % Control of Weeds, Wild Violet Control ([1]; 0.25 lb/ac, 28 DAT): 0% | % Control of Weeds, Wild Violet Control ([1]; 0.25 lb/ac, 40 DAT): 0% | % Control of Weeds, Wild Violet Control ([1]; 0.25 lb/ac, 55 DAT): 0% | % Control of Weeds, Wild Violet Control ([1]; 0.38 lb/ac, 6 DAT): 1.7% | % Control of Weeds, Wild Violet Control ([1]; 0.38 lb/ac, 14 DAT): 0% | % Control of Weeds, Wild Violet Control ([1]; 0.38 lb/ac, 28 DAT): 10% | % Control of Weeds, Wild Violet Control ([1]; 0.38 lb/ac, 40 DAT): 0% | % Control of Weeds, Wild Violet Control ([1]; 0.38 lb/ac, 55 DAT): 23.3% | % Control of Weeds, Ground Ivy Control ([2]; 0.125 lb/ac, 6 DAT): 11.7% | % Control of Weeds, Ground Ivy Control ([2]; 0.125 lb/ac, 14 DAT): 10% | % Control of Weeds, Ground Ivy Control ([2]; 0.125 lb/ac, 28 DAT): 0% | % Control of Weeds, Ground Ivy Control ([2]; 0.125 lb/ac, 40 DAT): 0% | % Control of Weeds, Ground Ivy Control ([2]; 0.125 lb/ac, 55 DAT): 0% | % Control of Weeds, Ground Ivy Control ([2]; 0.25 lb/ac, 6 DAT): 10% | % Control of Weeds, Ground Ivy Control ([2]; 0.25 lb/ac, 14 DAT): 13.3% | % Control of Weeds, Ground Ivy Control ([2]; 0.25 lb/ac, 28 DAT): 0% | % Control of Weeds, Ground Ivy Control ([2]; 0.25 lb/ac, 40 DAT): 0% | % Control of Weeds, Ground Ivy Control ([2]; 0.25 lb/ac, 55 DAT): 0% | % Control of Weeds, Ground Ivy Control ([2]; 0.38 lb/ac, 6 DAT): 11.7% | % Control of Weeds, Ground Ivy Control ([2]; 0.38 lb/ac, 14 DAT): 6.7% | % Control of Weeds, Ground Ivy Control ([2]; 0.38 lb/ac, 28 DAT): 3.3% | % Control of Weeds, Ground Ivy Control ([2]; 0.38 lb/ac, 40 DAT): 0% | % Control of Weeds, Ground Ivy Control ([2]; 0.38 lb/ac, 55 DAT): 0%
